Experimental data taken from ChEMBL document CHEMBL5370623, “Discovery of Quinazoline-2,4(1H,3H)-dione Derivatives Containing a Piperizinone Moiety as Potent PARP-1/2 Inhibitors─Design, Synthesis, In Vivo Antitumor Activity, and X-ray Crystal Structure Analysis” (J Med Chem, 2023).
pIC50, pKd: −log10 of the molar value. Each block holds one molecule with its values, some of them ahead of it. Calls of active or inactive are those of the source. The rule behind the calls is not given here.

Columns and labels:
MDA-MB-436 [1] = experiment: Antitumor activity against BRCAl-deficient human MDA-MB-436 cells xenografted in Balb/c athymic nude mouse assessed as tumor growth inhibition at 3.3 mg/kg, po qd measured after 23 days; assay type: functional; details: MDA-MB-436, 552 h, time 23 day, read-out: TGI
[2] = biological target: Protein mono-ADP-ribosyltransferase TIPARP (Homo sapiens, UniProt Q7Z3E1); experiment: Inhibition of human recombinant N-terminal FLAG-tagged PARP7 (400 to 657(end) residues) expressed in Sf9 cells
MC-38 [3] = experiment: Antitumor activity against mouse MC38 cells implanted in C57BL/6 mouse assessed as tumor growth inhibition at 10 mg/kg, po qd measured after 17 days; assay type: functional; details: MC-38, 408 h, time 17 day, read-out: TGI
[4] = Toxicity in C57BL/6 mouse implanted with mouse MC38 cells assessed as change in body weight at 10 mg/kg, po qd measured after 17 days; assay type: organism-based, MC-38; details: in vivo, 408 h, time 17 day
[5] = Half life in BALB/c mouse at 25 mg/kg, po measured upto 24 hrs by LC-MS/MS analysis; assay type: ADME, organism-based; details: in vivo
[6] = biological target: T1, Poly [ADP-ribose] polymerase 1 (Homo sapiens, UniProt P09874); experiment: Inhibition of human recombinant PARP1 expressed in Escherichia coli BL21(DE3) incubated for 1 hr by ELISA assay
[7] = Binding affinity to cat PARP1 assessed as dissociation constant by SPR assay; design: species or system Felis catus
MDA-MB-436 [8] = experiment: Antitumor activity against BRCAl-deficient human MDA-MB-436 cells xenografted in Balb/c athymic nude mouse assessed as tumor growth inhibition at 1.1 mg/kg, po qd measured after 23 days; assay type: functional; details: MDA-MB-436, 552 h, time 23 day, read-out: TGI
[9] = Cmax in BALB/c mouse at 25 mg/kg, po measured upto 24 hrs by LC-MS/MS analysis; assay type: ADME, organism-based; design: time < 24 hrs, dose 25 mg/kg, route po; details: in vivo
[10] = Toxicity in Balb/c athymic nude mouse xenografted with PTEN-deficient human DU145 cells assessed as change in body weight at 5 to 20 mg/kg, po qd measured after 14 days; assay type: organism-based, DU-145; details: in vivo, 336 h, dose 5-20 mg/kg, time 14 day
[11] = MRT (0 to infinity) in BALB/c mouse at 25 mg/kg, po measured upto 24 hrs by LC-MS/MS analysis; assay type: ADME, organism-based; details: in vivo
[12] = Toxicity in Balb/c athymic nude mouse xenografted with BRCAl-deficient human MDA-MB-436 cells assessed as change in body weight at 1.1 to 10 mg/kg, po qd measured after 23 days; assay type: organism-based; details: in vivo, 552 h, dose 1.1-10 mg/kg, time 23 day
[13] = Oral bioavailability in BALB/c mouse at 25 mg/kg measured upto 24 hrs by LC-MS/MS analysis; assay type: ADME, organism-based; details: in vivo
[14] = MRT (0 to t) in BALB/c mouse at 2.5 mg/kg, iv measured upto 24 hrs by LC-MS/MS analysis; assay type: ADME, organism-based; details: in vivo
[15] = AUC (0 to infinity) in BALB/c mouse at 2.5 mg/kg, iv measured upto 24 hrs by LC-MS/MS analysis; assay type: ADME, organism-based; design: dose 2.5 mg/kg, time < 24 hrs, route iv; details: in vivo
[16] = biological target: Protein mono-ADP-ribosyltransferase PARP6 (Homo sapiens, UniProt Q2NL67); experiment: Inhibition of human recombinant N-terminal GST-tagged PARP6 (1 to 630(end) residues) expressed in Sf9 cells
DU-145 [17] = experiment: Antitumor activity against PTEN-deficient human DU-145 cells xenografted in Balb/c athymic nude mouse assessed as tumor growth inhibition at 5 mg/kg, po qd measured after 14 days; assay type: functional; details: DU-145, 336 h, time 14 day, read-out: TGI
[18] = MRT (0 to infinity) in BALB/c mouse at 2.5 mg/kg, iv measured upto 24 hrs by LC-MS/MS analysis; assay type: ADME, organism-based; details: in vivo
MDA-MB-436 [19] = experiment: Antitumor activity against BRCAl-deficient human MDA-MB-436 cells xenografted in Balb/c athymic nude mouse assessed as tumor growth inhibition at 10 mg/kg, po qd measured after 23 days; assay type: functional; details: MDA-MB-436, 552 h, time 23 day, read-out: TGI
[20] = biological target: Protein mono-ADP-ribosyltransferase PARP8 (Homo sapiens, UniProt Q8N3A8); experiment: Inhibition of PARP8 (unknown origin)
DU-145 [21] = experiment: Antitumor activity against PTEN-deficient human DU-145 cells xenografted in Balb/c athymic nude mouse assessed as tumor growth inhibition at 20 mg/kg, po qd measured after 14 days; assay type: functional; details: DU-145, 336 h, time 14 day, read-out: TGI
[22] = Half life in BALB/c mouse at 2.5 mg/kg, iv measured upto 24 hrs by LC-MS/MS analysis; assay type: ADME, organism-based; details: in vivo
[23] = biological target: T2, Poly [ADP-ribose] polymerase 2 (Homo sapiens, UniProt Q9UGN5)
Description: Inhibition of human recombinant N-terminal GST-tagged PARP2 (2 to 583(end) residues) expressed in Sf9 cells

DU-145 [24] = experiment: Antitumor activity against PTEN-deficient human DU-145 cells xenografted in Balb/c athymic nude mouse assessed as tumor growth inhibition at 10 mg/kg, po qd measured after 14 days; assay type: functional; details: DU-145, 336 h, time 14 day, read-out: TGI
[25] = biological target: T2, Poly [ADP-ribose] polymerase 2; experiment: Inhibition of human recombinant PARP2 expressed in Escherichia coli BL21(DE3) incubated for 1 hr by ELISA assay
[26] = AUC (0 to infinity) in BALB/c mouse at 25 mg/kg, po measured upto 24 hrs by LC-MS/MS analysis; assay type: ADME, organism-based; design: dose 25 mg/kg, time < 24 hrs, route po; details: in vivo
[27] = biological target: T1, Poly [ADP-ribose] polymerase 1; experiment: Inhibition of human recombinant N-terminal GST-tagged PARP1 (2 to 1014(end) residues) expressed in Sf9 cells
[28] = Binding affinity to cat PARP2 assessed as dissociation constant by SPR assay; design: species or system Felis catus
[29] = Cmax in BALB/c mouse at 2.5 mg/kg, iv measured upto 24 hrs by LC-MS/MS analysis; assay type: ADME, organism-based; design: time < 24 hrs, dose 2.5 mg/kg, route iv; details: in vivo
[30] = AUC (0 to t) in BALB/c mouse at 2.5 mg/kg, iv measured upto 24 hrs by LC-MS/MS analysis; assay type: ADME, organism-based; design: time < 24 hrs, dose 2.5 mg/kg, route iv; details: in vivo
[31] = biological target: Protein mono-ADP-ribosyltransferase PARP3 (Homo sapiens, UniProt Q9Y6F1); experiment: Inhibition of human recombinant N-terminal GST-tagged PARP3 (2 to 540(end) residues) expressed in Sf9 cells
[32] = AUC (0 to t) in BALB/c mouse at 25 mg/kg, po measured upto 24 hrs by LC-MS/MS analysis; assay type: ADME, organism-based; design: time < 24 hrs, dose 25 mg/kg, route po; details: in vivo
[33] = Aqueous solubility of the compound; assay type: physicochemical
[34] = MRT (0 to t) in BALB/c mouse at 25 mg/kg, po measured upto 24 hrs by LC-MS/MS analysis; assay type: ADME, organism-based; details: in vivo
[35] = Tmax in BALB/c mouse at 2.5 mg/kg, iv measured upto 24 hrs by LC-MS/MS analysis; assay type: ADME, organism-based; details: in vivo
[36] = Tmax in BALB/c mouse at 25 mg/kg, po measured upto 24 hrs by LC-MS/MS analysis; assay type: ADME, organism-based; details: in vivo
MC-38 [37] = experiment: Antitumor activity against mouse MC38 cells implanted in C57BL/6 mouse assessed as tumor growth inhibition at 50 mg/kg, po qd measured after 17 days; assay type: functional; details: time 17 day
MC-38 [38] = experiment: Antitumor activity against mouse MC38 cells implanted in C57BL/6 mouse assessed as increase in CD8+T cells in tumor at 50 mg/kg, po qd measured after 17 days by flow cytometry analysis; assay type: functional, organism-based; details: time 17.0 day
Felis catus [39] = species: Felis catus; experiment: Binding affinity to cat PARP2 assessed as dissociative half-life by SPR assay
MX1 [40] = experiment: Potentiation factor, ratio of IC50 for cytotoxicity against human MX1 cells to IC50 for cytotoxicity against human MX1 cells in presence of temozolomide; assay type: functional
MX1 [41] = experiment: Cytotoxicity against human MX1 cells […] assessed as inhibition of cell growth measured after 72 hrs by MTT assay; assay type: functional, cell-based; details: MX1, 72 h
Felis catus [42] = species: Felis catus; experiment: Binding affinity to cat PARP1 assessed as dissociative half-life by SPR assay

T2 sequence (Q9UGN5 whole entry): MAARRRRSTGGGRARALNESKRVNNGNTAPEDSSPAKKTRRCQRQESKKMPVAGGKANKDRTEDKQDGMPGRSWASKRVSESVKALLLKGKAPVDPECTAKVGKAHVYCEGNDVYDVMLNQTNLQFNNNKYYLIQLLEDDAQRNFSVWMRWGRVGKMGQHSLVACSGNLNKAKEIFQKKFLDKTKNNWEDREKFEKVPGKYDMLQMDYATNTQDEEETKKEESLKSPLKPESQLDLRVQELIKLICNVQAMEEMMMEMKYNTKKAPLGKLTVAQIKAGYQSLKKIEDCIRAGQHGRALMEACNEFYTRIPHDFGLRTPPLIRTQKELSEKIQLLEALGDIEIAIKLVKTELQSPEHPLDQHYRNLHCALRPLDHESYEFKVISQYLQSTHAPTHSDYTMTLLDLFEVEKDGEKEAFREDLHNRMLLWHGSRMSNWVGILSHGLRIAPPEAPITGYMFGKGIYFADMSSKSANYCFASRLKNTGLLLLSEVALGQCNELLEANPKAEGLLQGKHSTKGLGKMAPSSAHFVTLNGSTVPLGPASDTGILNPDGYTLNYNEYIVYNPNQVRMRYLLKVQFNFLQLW
T1 sequence (P09874 whole entry): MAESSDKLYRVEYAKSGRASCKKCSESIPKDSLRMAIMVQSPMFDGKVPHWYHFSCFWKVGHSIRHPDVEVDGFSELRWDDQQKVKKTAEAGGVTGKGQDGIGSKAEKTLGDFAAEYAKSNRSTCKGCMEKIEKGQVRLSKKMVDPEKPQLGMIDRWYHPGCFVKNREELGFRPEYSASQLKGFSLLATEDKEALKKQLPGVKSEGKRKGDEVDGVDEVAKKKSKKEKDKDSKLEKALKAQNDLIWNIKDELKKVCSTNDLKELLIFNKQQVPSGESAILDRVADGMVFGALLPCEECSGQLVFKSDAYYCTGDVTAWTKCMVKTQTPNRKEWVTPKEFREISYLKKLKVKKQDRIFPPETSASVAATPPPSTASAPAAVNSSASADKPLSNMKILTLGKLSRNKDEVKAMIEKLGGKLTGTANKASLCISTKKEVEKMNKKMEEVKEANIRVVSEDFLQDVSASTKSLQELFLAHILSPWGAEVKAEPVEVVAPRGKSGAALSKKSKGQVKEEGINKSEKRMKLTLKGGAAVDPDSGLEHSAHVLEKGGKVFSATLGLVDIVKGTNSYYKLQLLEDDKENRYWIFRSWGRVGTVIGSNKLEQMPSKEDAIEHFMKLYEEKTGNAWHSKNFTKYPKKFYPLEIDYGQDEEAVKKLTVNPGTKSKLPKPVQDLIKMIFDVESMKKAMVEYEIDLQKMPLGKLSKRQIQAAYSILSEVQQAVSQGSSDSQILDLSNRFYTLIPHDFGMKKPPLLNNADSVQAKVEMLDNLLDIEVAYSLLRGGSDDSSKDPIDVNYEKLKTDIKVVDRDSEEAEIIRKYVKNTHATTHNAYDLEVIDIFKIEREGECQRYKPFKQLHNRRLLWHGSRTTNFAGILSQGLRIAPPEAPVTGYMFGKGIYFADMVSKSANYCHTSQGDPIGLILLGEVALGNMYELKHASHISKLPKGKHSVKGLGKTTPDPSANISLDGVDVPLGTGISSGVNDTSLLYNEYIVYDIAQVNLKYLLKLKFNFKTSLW
Protein mono-ADP-ribosyltransferase PARP8, sequence (Q8N3A8 whole entry): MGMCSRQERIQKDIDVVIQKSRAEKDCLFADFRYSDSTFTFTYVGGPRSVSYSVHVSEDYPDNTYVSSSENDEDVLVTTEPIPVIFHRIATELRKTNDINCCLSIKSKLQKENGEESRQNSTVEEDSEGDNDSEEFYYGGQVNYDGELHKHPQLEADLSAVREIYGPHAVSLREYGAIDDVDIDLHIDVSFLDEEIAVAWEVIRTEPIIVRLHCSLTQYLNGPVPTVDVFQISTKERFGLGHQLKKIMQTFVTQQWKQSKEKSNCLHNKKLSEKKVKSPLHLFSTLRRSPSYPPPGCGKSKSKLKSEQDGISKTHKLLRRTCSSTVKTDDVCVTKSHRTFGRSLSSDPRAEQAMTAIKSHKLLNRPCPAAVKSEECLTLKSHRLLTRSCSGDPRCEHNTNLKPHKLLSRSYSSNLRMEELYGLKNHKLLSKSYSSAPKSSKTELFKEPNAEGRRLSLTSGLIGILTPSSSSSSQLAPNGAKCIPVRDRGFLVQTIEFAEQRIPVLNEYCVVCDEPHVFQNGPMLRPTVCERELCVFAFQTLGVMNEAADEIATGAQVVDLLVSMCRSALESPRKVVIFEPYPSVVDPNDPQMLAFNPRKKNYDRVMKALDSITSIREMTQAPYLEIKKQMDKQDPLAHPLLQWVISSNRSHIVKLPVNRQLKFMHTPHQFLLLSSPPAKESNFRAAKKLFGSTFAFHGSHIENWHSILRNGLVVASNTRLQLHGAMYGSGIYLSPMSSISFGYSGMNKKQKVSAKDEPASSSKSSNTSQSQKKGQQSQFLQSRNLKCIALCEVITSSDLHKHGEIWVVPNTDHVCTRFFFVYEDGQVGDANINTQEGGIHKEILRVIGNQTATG
Protein mono-ADP-ribosyltransferase TIPARP, sequence (Q7Z3E1 whole entry): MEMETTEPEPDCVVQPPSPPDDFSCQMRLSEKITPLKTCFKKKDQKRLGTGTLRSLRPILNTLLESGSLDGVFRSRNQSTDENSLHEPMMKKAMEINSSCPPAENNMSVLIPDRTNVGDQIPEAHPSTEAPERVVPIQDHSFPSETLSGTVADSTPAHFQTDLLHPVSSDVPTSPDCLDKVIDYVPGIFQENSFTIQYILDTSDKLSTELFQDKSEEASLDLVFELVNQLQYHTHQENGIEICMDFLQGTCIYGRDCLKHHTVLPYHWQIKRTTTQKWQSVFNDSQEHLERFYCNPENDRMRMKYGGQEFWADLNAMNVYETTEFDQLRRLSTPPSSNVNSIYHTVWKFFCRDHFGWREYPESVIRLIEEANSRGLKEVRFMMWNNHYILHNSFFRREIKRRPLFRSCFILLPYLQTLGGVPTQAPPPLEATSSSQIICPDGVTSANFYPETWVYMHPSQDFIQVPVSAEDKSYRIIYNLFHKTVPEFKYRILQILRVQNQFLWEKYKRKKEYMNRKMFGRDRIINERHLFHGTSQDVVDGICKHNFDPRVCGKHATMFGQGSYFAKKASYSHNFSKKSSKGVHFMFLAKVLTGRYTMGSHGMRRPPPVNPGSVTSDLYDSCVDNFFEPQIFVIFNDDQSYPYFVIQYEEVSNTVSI
Protein mono-ADP-ribosyltransferase PARP6, sequence (Q2NL67 whole entry): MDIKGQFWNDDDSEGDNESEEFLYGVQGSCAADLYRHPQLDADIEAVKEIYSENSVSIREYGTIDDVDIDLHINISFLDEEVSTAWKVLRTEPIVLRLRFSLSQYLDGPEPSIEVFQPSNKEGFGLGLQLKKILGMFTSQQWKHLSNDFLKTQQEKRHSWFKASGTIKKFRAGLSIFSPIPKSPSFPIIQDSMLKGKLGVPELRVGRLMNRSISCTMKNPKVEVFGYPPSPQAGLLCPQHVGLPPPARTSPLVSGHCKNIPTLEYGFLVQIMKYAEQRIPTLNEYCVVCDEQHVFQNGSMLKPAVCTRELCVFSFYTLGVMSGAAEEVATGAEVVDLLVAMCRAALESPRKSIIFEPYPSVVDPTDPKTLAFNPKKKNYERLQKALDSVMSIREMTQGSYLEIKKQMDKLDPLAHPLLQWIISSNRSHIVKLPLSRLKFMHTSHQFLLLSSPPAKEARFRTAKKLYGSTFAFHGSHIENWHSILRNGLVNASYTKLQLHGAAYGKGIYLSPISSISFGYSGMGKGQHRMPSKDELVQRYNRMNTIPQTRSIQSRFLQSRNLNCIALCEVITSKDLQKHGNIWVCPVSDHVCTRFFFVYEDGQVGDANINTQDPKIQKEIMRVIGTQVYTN
Protein mono-ADP-ribosyltransferase PARP3, sequence (Q9Y6F1 whole entry): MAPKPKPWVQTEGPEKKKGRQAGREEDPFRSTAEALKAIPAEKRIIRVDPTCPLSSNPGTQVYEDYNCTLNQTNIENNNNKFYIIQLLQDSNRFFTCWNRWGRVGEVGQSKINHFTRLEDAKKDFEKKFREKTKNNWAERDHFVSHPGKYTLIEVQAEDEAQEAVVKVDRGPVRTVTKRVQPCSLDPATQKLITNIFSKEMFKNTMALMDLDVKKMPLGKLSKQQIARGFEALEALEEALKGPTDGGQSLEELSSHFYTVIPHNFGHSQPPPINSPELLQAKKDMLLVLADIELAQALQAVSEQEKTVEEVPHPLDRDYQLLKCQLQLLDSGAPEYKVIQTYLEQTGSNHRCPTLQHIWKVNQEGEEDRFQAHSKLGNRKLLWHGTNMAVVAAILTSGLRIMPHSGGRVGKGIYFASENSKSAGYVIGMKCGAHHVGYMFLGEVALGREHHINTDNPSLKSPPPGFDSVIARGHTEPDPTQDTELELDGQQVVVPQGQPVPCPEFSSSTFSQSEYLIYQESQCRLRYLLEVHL

- pIC50 [2]: 9.68
- half-life [5]: 16.2 min
- pIC50 [6]: 9.03
- pKd [7]: 9.08
- Cmax [9]: 1540 ng/mL
- MRT inf [11]: 19.2 min
- bioavailability [13]: 14.7%
- MRT last at 24 h [14]: 7.8 min
- AUC(0-inf) [15]: 419 ng·h/mL
- pIC50 [16]: ~6.55
- MRT inf [18]: 7.8 min
- pIC50 [20]: 7.89
- half-life [22]: 7.8 min
- pIC50 [23]: 9.06
- pIC50 [25]: 9.06
- AUC(0-inf) [26]: 617 ng·h/mL
- pIC50 [27]: 9.03
- pKd [28]: 9.12
- Cmax [29]: 2430 ng/mL
- AUC(0-t) at 24 h [30]: 417 ng·h/mL
- pIC50 [31]: 7.29
- AUC(0-t) at 24 h [32]: 612 ng·h/mL
- solubility [33]: 223 µg/mL
- MRT last at 24 h [34]: 18.6 min
- Tmax [35]: 1.8 min
- Tmax [36]: 4.8 min
SMILES: CCC(CC)N1CCN(C(=O)c2cc(Cn3c(=O)[n-]c(=O)c4ccccc43)ccc2F)CC1=O.[Na+]
- inhibition in vivo at 3.3 mg/kg (MDA-MB-436 [1]): 84.9%
- inhibition in vivo at 10 mg/kg (MC-38 [3]): 57.3%
- Activity [4]: Non-Toxic
- inhibition in vivo at 1.1 mg/kg (MDA-MB-436 [8]): 54.6%
- Activity [10]: Non-Toxic
- Activity [12]: Non-Toxic
- inhibition in vivo at 5 mg/kg (DU-145 [17]): 69.2%
- inhibition in vivo at 10 mg/kg (MDA-MB-436 [19]): 94.3%
- inhibition in vivo at 20 mg/kg (DU-145 [21]): 91.2%
- inhibition in vivo at 10 mg/kg (DU-145 [24]): 87%

- T1/2 (Felis catus [39]): 17.4 min
- T1/2 (Felis catus [42]): 51.1 min
SMILES: O=C(c1cc(Cc2n[nH]c(=O)c3ccccc23)ccc1F)N1CCN(C(=O)C2CC2)CC1 [OLAPARIB]
- TGI (MC-38 [37]): 57.9%
- Activity (MC-38 [38]): inactive
- PF50 (MX1 [40]): >10
- pIC50 (MX1 [41]): 8.08
